The nature of data set [1]: Tolerability in mice treated with compound only. Type of data set: in vivo, CD-1 mice. Conditions: 5 mg/kg i.p., ten-day observation. As to the method:
The virulence potential of the wild-type S. aureus MW2 wild-type and corresponding MW2ΔSTK1 and MW2ΔSTP1 mutants was assessed using the mouse-septicemia model. CD-1 mice (5 weeks old, 20-22 g. Charles River Laboratories, ten female mice/group and housed in a group of 5 mice/cage) were lightly anesthetized with isoflurane and injected retro-orbitally with the S. aureus MW2 or isogenic MW2Δstk1 mutant (4×10^8 CFU/0.1 ml of PBS). […] For therapeutic studies, the animals were first challenged with MW2-WT strain as described above and subsequently administered with antibiotic and/or small molecule compounds. The latter was started 4 h after the challenge and subsequently 12 h apart for 4 days post infection. Thus, Inh2-B1 (5 mg/kg body weight in 0.3 ml vehicle buffer), Ceftriaxone (10 and 25 mg/kg body weight in 0.3 ml vehicle buffer). […] Data were combined, and percentage survival in each group was statistically evaluated by the Log-Rank test (Kaplan-Meier) using the GraphPad Prism 6 software. […] On Day 3 P.I., 3-6 mice from different groups receiving treatment with a single antibiotic or combination therapy were euthanized and sacrificed, and kidneys were […] for determining the bacterial load, which was determined by counting the colony forming units in the homogenized tissue in sterile PBS buffer.

Another data set deals with S. aureus MW2. The experiment in a line: Broth dilution susceptibility / growth inhibition assay, Muller Hinton broth. Type of data set: cell-based, Staphylococcus aureus. Conditions: growth inhibition of S. aureus MW2. As to the method: Subsequently, the susceptibility of S. aureus MW2 strain to Ceftriaxone, Cefotaxime, Inh2, and Inh2-B1 was confirmed by the CLSI recommended serial dilution method using Muller Hinton broth. Minimum bactericidal activity (MBC) was measured using Muller-Hinton agar. Changes in the MBC of Ceftriaxone/Cefotaxime in the presence of serially diluted Inh2-B1 was determined in two steps. Initial screening was carried out using the Checkerboard method using Muller-Hinton agar (FIG. 15). […] Subsequent time to kill assays were carried out using 50 μM Inh2-B1 and Ceftriaxone. Cefotaxime (1 μg/ml) in a final volume of 250 μl using a sterile 96-well (U-bottom) microtiter plate over a period of 16 h at 37° C. under constant rotation (120 rpm). Optical density and corresponding CFU counts were measured at every two-hour interval up to 8 hours with a final overnight reading at the end of incubation period. CFU counts were measured using appropriate dilution of 10 μl of properly mixed samples at each time interval. All experiments were performed in three biological replicates and the statistical analysis of the results obtained at each time point was carried out by the non-parametric t-test with Welch's correction using GraphPad Prism 6 software.

In data set [2] the test system is S. pyogenes SP-STK / SP-STKK. Nature of the data set: Solid-phase ATP affinity chromatography, elution of bound kinase by inhibitor, Western blot. Type of data set: binding. Conditions: purified recombinant protein. As to the method:
(§1) An overnight culture of S. aureus MW2 strain was centrifuged, and the resulting bacterial pellet was resuspended in lysostaphin digestion buffer (50 mM Tris/HCl buffer, pH 7.5, containing 5 μg/ml DNAse/RNAse and protease inhibitor cocktail) in 1/10 the volume of the original culture volume. The latter was then subjected to lysostaphin treatment (15 U/ml). The lysostaphin digest was sonicated (5 sec pulse at every 10 sec for 10 min at 50% of 130 W, […]), and the debris free whole cell lysate was obtained after centrifugation (10.000×g, 10 min, 4° C.). […] The column was then washed with ten column volumes of binding buffer. Subsequently, the bound proteins were eluted with the 10-column volume of buffer containing 50 μM Inh-2 and Inh2-B1. S. aureus crude lysate, the last fraction of the column washing step, and eluted fractions were resolved by SDS-PAGE and electroblotted onto a PVDF membrane. […] A similar experiment was performed using S. pyogenes whole cell lysates obtained from phage lysin-digested S. pyogenes M1T1 strain using the anti-SP-STK antibody as described previously using to determine the specificity of the inhibitor for S. aureus STK1.
For orientation: Immunoblotting shows a protein as a band on a membrane.

The next data set relates to S. aureus STK1 / STKK1. Described as above. In kind it is binding. As to the method:
as §1

The next data set relates to BEAS-2B cells. Nature of the data set: LDH release cytotoxicity assay. In kind it is cell-based, human. To be noted: 1.56-100 μM, 24 h. As to the method:
(§2) Various concentrations (1.56-100 μM) of the small molecule compounds Inh2-B1 were tested for their cytotoxicity by incubating them for 24 h in the cell lines mentioned above. The cytotoxicity of compounds was determined by measuring the activity of lactate dehydrogenase (LDH) released from the damaged cells during incubation. The LDH assay was performed in triplicate wells. At the end of incubation, the plates were lightly centrifuged, and the culture supernatants were examined for the presence of LDH activity using Cytotoxicity Detection Kit (Promega) per the manufacturer's instructions. LDH activity was detected spectrophotometrically (Molecular device, 490 nm) and normalized to the total LDH activity (100%) in cell lysate of the untreated cells. Background value obtained with untreated culture supernatant was subtracted before data evaluation.
Background: LDH in the medium is a marker of cell lysis.

Another data set deals with Detroit 562 cells. The experiment in a line: LDH release cytotoxicity assay. In kind it is cell-based, human. To be noted: 1.56-100 μM, 24 h. As to the method:
as §2

The test system of a further data set is S. pyogenes SP-STK. The experiment in a line: In vitro autophosphorylation / kinase activity of SP-STK. In kind it is biochemical.

Molecules are shown by their SMILES.

Regarding `COC(=O)c1ccc2c(=O)[nH]c3c(C(=O)Nc4ccccc4)sc(=S)n3c2c1` [Inh2-B1, Methyl 5-oxo-3-(phenylcarbamoyl)-1-thioxo-4,5dihydro[1,3]thiazolo[3,4-a]quinazoline-8-carboxylate], in data set [1], the “signs of illness in mice treated with only the compound” value is recorded as “no morbid signs of illness” and the “survival of mice treated with only the compound” value is listed as “survived all throughout the observation period”. In the data set on S. aureus MW2, the “concentration at which S. aureus MW2 still grows” value is over 50 µM. In data set [2], the “elution of purified recombinant S. pyogenes SP-STKK from ATP-column” value was “not S. pyogenes SP-STKK protein”. Moreover, the “elution of STK1 bound to ATP-column, whole cell lysate of S. aureus MW2” value with S. aureus STK1 / STKK1 (eluted with 50 μM inhibitor, anti-STK1 immunoblot) is on record as “presence of STK1”. The “elution of purified recombinant S. aureus STKK1 from ATP-column” value with S. aureus STK1 / STKK1 (purified recombinant protein) is recorded as “could elute only the S. aureus STKK1 protein”. The “cytotoxicity (LDH release)” value in the data set on BEAS-2B cells is listed as about 15%. For the same compound, the “lysis (LDH release)” value in the data set on Detroit 562 cells was “less than 5%”. Besides, the “inhibition of the kinase activity of SP-STK of S. pyogenes” value with S. pyogenes SP-STK is given as “did not inhibit the kinase activity”.

These data come from patent US11318141B2, “Methods and compositions related to STK1-targeted small molecules as antibiotic resistance breakers” (Ohio State Innovation Foundation, priority 2017, dated 2022).
